Data as given in US11673910B2, “Macrolides with modified desosamine sugars and uses thereof” (Zikani Therapeutics, Inc., priority 2017, dated 2023).
Converted amounts (≈) assume the structure as drawn.

Experiments:
Type in all cases: cell-based
[1] = tested on: E. coli strain MP-4; assay: Broth dilution MIC determination (CLSI) against E. coli strain MP-4; conditions: Escherichia coli, MP4
Description: (§1) Minimum inhibitory concentrations (MICs) for macrolides described herein were determined for E. coli strain MP-4, K. pneumoniae strain MP-548, P. aeruginosa strain MP-3, A. baumannii strain MP-15, and S. aureus strain MP-12 using similar test procedures as published in US Pat. Pub. No. 2017/0305953. MIC data is represented as “+++” for values less than or equal to 4 mg/L, “++” for values of greater than or equal to 8 mg/L and less than 32 mg/L, and “+” for values of 32 mg/L or greater. ND indicates no data for a particular compound. CLSI standard procedures for broth dilution MIC determination were used.

[2] = tested on: K. pneumoniae strain MP-548; assay: Broth dilution MIC determination (CLSI) against K. pneumoniae strain MP-548; conditions: Klebsiella pneumoniae, MP548
Description: as §1

[3] = tested on: P. aeruginosa strain MP-3; assay: Broth dilution MIC determination (CLSI) against P. aeruginosa strain MP-3; conditions: Pseudomonas aeruginosa, MP3
Description: as §1

[4] = tested on: A. baumannii strain MP-15; assay: Broth dilution MIC determination (CLSI) against A. baumannii strain MP-15; conditions: Acinetobacter baumannii, MP15
Description: as §1

[5] = tested on: S. aureus strain MP-12; assay: Broth dilution MIC determination (CLSI) against S. aureus strain MP-12; conditions: Staphylococcus aureus, MP12, strain MP-12
Description: as §1

CC[C@H]1OC(=O)C(C)C(=O)[C@H](C)[C@@H](OC2OC(CN3CCC(F)(F)CC3)CC(N(C)C)C2O)[C@](C)(OC)C[C@@H](C)CN[C@H](C)[C@H]2NC(=O)O[C@@]21C (stereo partly shown) [Compound 144, 3-Descladinosyl-3-oxo-6-O-methyl-N9a-desmethyl-11,12-dideoxy-12,11-(oxycarbonylimino)-6′-(4″,4″-difluoropiperidin-1″-yl) Azithromycin]
MIC [1]: ≤ 4 µg/mL
MIC [2]: 8 to 32 µg/mL (≈ 10.9 to 43.7 µM)
MIC [3]: ≥ 32 µg/mL
MIC [4]: 8 to 32 µg/mL (≈ 10.9 to 43.7 µM)
MIC [5]: 8 to 32 µg/mL (≈ 10.9 to 43.7 µM)

CC[C@H]1OC(=O)C(C)C(=O)[C@H](C)[C@@H](OC2OC(CNC(C)(C)C)CC(N(C)C)C2O)[C@](C)(OC)C[C@@H](C)CN[C@H](C)[C@H]2NC(=O)O[C@@]21C (stereo partly shown) [Compound 110, 3-Descladinosyl-3-oxo-6-O-methyl-N9a-desmethyl-11,12-dideoxy-12,11-(oxycarbonylimino)-6′-tert-butylamino Azithromycin]
MIC [1]: ≤ 4 µg/mL
MIC [2]: 8 to 32 µg/mL (≈ 11.7 to 46.7 µM)
MIC [3]: ≥ 32 µg/mL
MIC [4]: ≥ 32 µg/mL
MIC [5]: ≥ 32 µg/mL

CC[C@H]1OC(=O)C(C)C(=O)[C@H](C)[C@@H](OC2OC(CN3CC(O)C3)CC(N(C)C)C2O)[C@](C)(OC)C[C@@H](C)CN[C@H](C)[C@H]2NC(=O)O[C@@]21C (stereo partly shown) [Compound 128, 3-Descladinosyl-3-oxo-6-O-methyl-N9a-desmethyl-11,12-dideoxy-12,11-(oxycarbonylimino)-6′-(3-hydroxy-1-azetidinyl) Azithromycin]
MIC [1]: ≥ 32 µg/mL
MIC [2]: ≥ 32 µg/mL
MIC [3]: ≥ 32 µg/mL
MIC [4]: ≥ 32 µg/mL
MIC [5]: ≥ 32 µg/mL

CC[C@H]1OC(=O)C(C)C(=O)[C@H](C)[C@@H](O[C@@H]2O[C@H]([C@H](C)N(C)C)CC(N(C)C)[C@H]2O)[C@](C)(OC)C[C@@H](C)CN[C@H](C)[C@H]2NC(=O)O[C@@]21C (stereo partly drawn) [Compound 175, 3-Descladinosyl-3-oxo-6-O-methyl-N9a-desmethyl-11,12-dideoxy-12,11-(oxycarbonylimino)-6′-((S)-(dimethylamino)ethyl) Azithromycin]
MIC [1]: ≤ 4 µg/mL
MIC [2]: 8 to 32 µg/mL (≈ 11.9 to 47.7 µM)
MIC [3]: ≥ 32 µg/mL
MIC [4]: ≥ 32 µg/mL
MIC [5]: ≥ 32 µg/mL

CC[C@H]1OC(=O)C(C)C(=O)[C@H](C)[C@@H](O[C@@H]2OC(CNc3cccc(F)c3)CC(N(C)C)C2O)[C@](C)(OC)C[C@@H](C)CN[C@H](C)[C@H]2NC(=O)O[C@@]21C (stereo partly shown) [Compound 48]
MIC [1]: 8 to 32 µg/mL (≈ 11.1 to 44.3 µM)
MIC [2]: ≥ 32 µg/mL
MIC [3]: ≥ 32 µg/mL
MIC [4]: ≥ 32 µg/mL
MIC [5]: 8 to 32 µg/mL (≈ 11.1 to 44.3 µM)

CC[C@H]1OC(=O)C(C)C(=O)[C@H](C)[C@@H](O[C@@H]2OC(CNc3ccc(Cl)cc3)CC(N(C)C)C2O)[C@](C)(OC)C[C@@H](C)CN[C@H](C)[C@H]2NC(=O)O[C@@]21C (stereo partly shown) [Compound 49]
MIC [1]: 8 to 32 µg/mL (≈ 10.8 to 43.3 µM)
MIC [2]: ≥ 32 µg/mL
MIC [3]: ≥ 32 µg/mL
MIC [4]: ≥ 32 µg/mL
MIC [5]: 8 to 32 µg/mL (≈ 10.8 to 43.3 µM)

CC[C@H]1OC(=O)C(C)C(=O)[C@H](C)[C@@H](O[C@@H]2O[C@H](CCC(C)C)CC(N(C)C)[C@H]2O)[C@](C)(OC)C[C@@H](C)CN[C@H](C)[C@H]2NC(=O)O[C@@]21C (stereo partly shown) [Compound 183, 3-Descladinosyl-3-oxo-6-O-methyl-N9a-desmethyl-11,12-dideoxy-12,11-(oxycarbonylimino)-6′-isobutyl Azithromycin]
MIC [1]: 8 to 32 µg/mL (≈ 11.9 to 47.8 µM)
MIC [2]: ≥ 32 µg/mL
MIC [3]: ≥ 32 µg/mL
MIC [4]: 8 to 32 µg/mL (≈ 11.9 to 47.8 µM)
MIC [5]: 8 to 32 µg/mL (≈ 11.9 to 47.8 µM)

CC[C@H]1OC(=O)C(C)C(=O)[C@H](C)[C@@H](OC2OC(CNCCOC)CC(N(C)C)C2O)[C@](C)(OC)C[C@@H](C)CN[C@H](C)[C@H]2NC(=O)O[C@@]21C (stereo partly shown) [Compound 114, 3-Descladinosyl-3-oxo-6-O-methyl-N9a-desmethyl-11,12-dideoxy-12,11-(oxycarbonylimino)-6′-(2-methoxyamino) Azithromycin]
MIC [1]: ≤ 4 µg/mL
MIC [2]: 8 to 32 µg/mL (≈ 11.6 to 46.6 µM)
MIC [3]: ≥ 32 µg/mL
MIC [4]: ≥ 32 µg/mL
MIC [5]: ≥ 32 µg/mL
